Source: paper PMC6696238, “Novel Benzothiazole-Based Ureas as 17β-HSD10 Inhibitors, A Potential Alzheimer’s Disease Treatment” (Molecules, 2019)

Assays:
17β-HSD10 = target: T1, 17β-HSD10 (Homo sapiens, UniProt Q99714); experiment: recombinant 17β-HSD10 enzyme activity assay (primary NADH screen and dose response); format: biochemical; set-up: made in house; conditions: relative remaining activity, 25 μM compound, six independent measurements ± SEM; read-out: 17β-HSD10 activity in the presence of compound at 25 μM (Primary Screen)
T1 sequence (Q99714 1-261): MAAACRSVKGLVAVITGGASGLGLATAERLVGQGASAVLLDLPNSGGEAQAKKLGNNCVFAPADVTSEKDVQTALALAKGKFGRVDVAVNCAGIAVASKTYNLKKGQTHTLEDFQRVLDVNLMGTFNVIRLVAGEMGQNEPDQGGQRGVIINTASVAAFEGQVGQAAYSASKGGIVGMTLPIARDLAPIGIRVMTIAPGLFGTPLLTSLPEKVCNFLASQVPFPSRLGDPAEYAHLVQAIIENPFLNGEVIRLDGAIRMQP
Source text: In order to reduce attrition rates and improve assay reproducibility we have developed a high throughput screening (HTS) pipeline (Figure 3 [19]). In brief, compounds are screened in the recombinant 17β-HSD10 enzyme activity assay (Table 5, Figure 4). Our best previously published compounds have set the threshold of 40% remaining 17β-HSD10 activity as a minimum standard and if compounds can better this threshold, they are further screened using our orthogonal counter assays, dose response assays and kinetic assessment (Table 5). Finally, if passing these criteria with favourable characteristics, the compounds progress into cellular evaluation through cytotoxicity testing and measuring 17β-HSD10 activity within cells (Table 6).
Full results for the primary nicotinamide adenine dinucleotide (NADH) assay screens are shown in Figure 4 including our four best previously published compounds for comparison (Figure 1).
Purification of 17β-HSD10 protein was performed as described in our previous work.
Compound screening, dose response and mechanism of inhibition experiments were performed as described in Hroch et al. 2016, with the exceptions being an alteration in assay buffer (10 mM Tris HCl (pH 7.4), 150 mM NaCl, 1 mM DTT, 0.005% Tween20, 0.01% BSA) and a change in temperature to 25 °C, to improve enzyme stability and assay reliability as compound solubility improved, as outlined in our previous work.

SMILES | remaining activity at 25 µM (17β-HSD10) [%] | melting point
COc1ccc2nc(NC(c3ccc(O)cc3)P(=O)(OC)OC)sc2c1 (stereo not drawn) [Compound 35, Dimethyl ((4-hydroxyphenyl)((6-methoxybenzo[d]thiazol-2-yl)amino)methyl) phosphonate, reference compound] | 96.6 ± 1.35 | –
COc1ccc2nc(NC(=O)c3ccc(O)c(Cl)c3)sc2c1 [Compound 26] | 105 ± 4.99 | –
O=C(Nc1ccc(O)c(Cl)c1)Nc1nc(-c2ccc(Cl)cc2)cs1 [Compound 73, 1-(3-Chloro-4-hydroxyphenyl)-3-(4-(4-chlorophenyl)thiazol-2-yl)urea] | 102 ± 3.65 | 206 to 208 °C
COc1ccc2nc(NC(=O)Nc3ccc(O)c(C)c3)sc2c1 [Compound 2, 1-(4-Hydroxy-3-methylphenyl)-3-(6-methoxybenzo[d]thiazol-2-yl)urea] | 52.2 ± 3.67 | 262 to 263 °C
COc1ccc2nc(NC(=O)Nc3ccc(CO)c(Cl)c3)sc2c1 [Compound 11, 1-(3-Chloro-4-(hydroxymethyl)phenyl)-3-(6-methoxybenzo[d]thiazol-2-yl)urea] | 110 ± 3.8 | 229 to 230 °C
COc1ccc2nc(NC(=O)Nc3ccc(O)c(C(C)(C)C)c3)sc2c1 [Compound 3, 1-(3-(Tert-butyl)-4-hydroxyphenyl)-3-(6-methoxybenzo[d]thiazol-2-yl)urea] | 41 ± 0.45 | 259 to 260 °C
O=C(Nc1ccc(O)c(Cl)c1)Nc1nc2c(s1)CCCC2 [Compound 71, 1-(3-Chloro-4-hydroxyphenyl)-3-(4,5,6,7-tetrahydrobenzo[d]thiazol-2-yl)urea] | 55.8 ± 1.54 | 258 to 260 °C
COc1ccc(CCNC(=O)Nc2ccc(O)c(Cl)c2)cc1 [Compound 75, 1-(3-Chloro-4-hydroxyphenyl)-3-(4-methoxyphenethyl)urea] | 73.3 ± 4.33 | 161.5 to 163.5 °C
COc1ccc2nc(NC(=O)Nc3ccc(N)cc3)sc2c1 [Compound 9, 1-(4-Aminophenyl)-3-(6-methoxybenzo[d]thiazol-2-yl)urea] | 105 ± 3.17 | 304 to 306 °C (dec.)
COc1ccc2nc(NC(=O)Nc3ccc(N)c(Cl)c3)sc2c1 [Compound 10, 1-(4-Amino-3-chlorophenyl)-3-(6-methoxybenzo[d]thiazol-2-yl)urea] | 117 ± 3.94 | 310 to 311 °C (dec.)
COc1ccc2nc(NC(c3ccc(O)c(Cl)c3)P(=O)(OC)OC)sc2c1 (stereo not drawn) [Compound 37, Dimethyl ((3-chloro-4-hydroxyphenyl)((6-methoxybenzo[d]thiazol-2-yl)amino)methyl) phosphonate] | 97.83 ± 0.88 | 198 to 199 °C
O=C(Nc1ccc(O)c(Cl)c1)Nc1ccc2ncsc2c1 [Compound 76, 1-(Benzo[d]thiazol-6-yl)-3-(3-chloro-4-hydroxyphenyl)urea] | 43.8 ± 0.77 | 224 to 226 °C
CN(C(=O)Nc1ccc(O)c(Cl)c1)c1nc2ccccc2s1 [Compound 41, 1-(Benzo[d]thiazol-2-yl)-3-(3-chloro-4-hydroxyphenyl)-1-methylurea] | 106 ± 20.9 | 171 to 172 °C
O=C(Nc1ccc(O)c(Cl)c1)Nc1nccs1 [Compound 74, 1-(3-Chloro-4-hydroxyphenyl)-3-(thiazol-2-yl)urea] | 74.5 ± 0.63 | 220 to 222 °C
COc1ccc2nc(NC(=O)Nc3ccc(O)c(C#N)c3)sc2c1 [Compound 4, 1-(3-Cyano-4-hydroxyphenyl)-3-(6-methoxybenzo[d]thiazol-2-yl)urea] | 96.5 ± 2.03 | 277 to 279 °C
COc1ccc2nc(NC(=O)Nc3ccc(O)c(N)c3)sc2c1 [Compound 7, 1-(3-Amino-4-hydroxyphenyl)-3-(6-methoxybenzo[d]thiazol-2-yl)urea] | 82.5 ± 2.39 | 180 to 181 °C
COc1ccc2nc(NC(=O)N(C)c3ccc(O)c(Cl)c3)sc2c1 [Compound 46, 1-(3-Chloro-4-hydroxyphenyl)-3-(6-methoxybenzo[d]thiazol-2-yl)-1-methylurea] | 97.8 ± 1.32 | 220 °C (dec.)
COc1ccc2nc(NC(c3ccc(F)cc3)P(=O)(OC)OC)sc2c1 (stereo not drawn) [Compound 34, Dimethyl ((4-fluorophenyl)((6-methoxybenzo[d]thiazol-2-yl)amino)methyl) phosphonate, reference compound] | 95.4 ± 1.16 | –
O=C(Nc1ccc(O)c(Cl)c1)NC1Cc2ccccc2C1 [Compound 72, 1-(3-Chloro-4-hydroxyphenyl)-3-(2,3-dihydro-1H-inden-2-yl)urea] | 79.2 ± 2.56 | 203 to 205 °C
COc1ccc2nc(NC(=O)Nc3ccc(O)nc3)sc2c1 [Compound 8, 1-(6-Hydroxypyridin-3-yl)-3-(6-methoxybenzo[d]thiazol-2-yl)urea] | 63.3 ± 3.42 | 272 to 273 °C
CN(C(=O)Nc1nc2ccccc2s1)c1ccc(O)c(Cl)c1 [Compound 45, 3-(Benzo[d]thiazol-2-yl)-1-(3-chloro-4-hydroxyphenyl)-1-methylurea] | 77.3 ± 1.43 | 139 to 141 °C
COc1ccc2nc(NC(=O)NCc3ccc(O)c(O)c3)sc2c1 [Compound 29, 1-(3,4-Dihydroxybenzyl)-3-(6-methoxybenzo[d]thiazol-2-yl)urea] | 63.5 ± 2.58 | 141.5 to 142 °C
COC(=O)c1cc(C(Nc2nc3ccc(OC)cc3s2)P(=O)(OC)OC)ccc1O (stereo not drawn) [Compound 36, Methyl 5-((dimethoxyphosphoryl)((6-methoxybenzo[d]thiazol-2-yl)amino)methyl)-2-hydroxybenzoate, reference compound] | 95.9 ± 2.09 | –
CN(C(=O)N(C)c1nc2ccccc2s1)c1ccc(O)c(Cl)c1 [Compound 49, 1-(Benzo[d]thiazol-2-yl)-3-(3-chloro-4-hydroxyphenyl)-1,3-dimethylurea] | 105 ± 2.21 | 227 to 228.5 °C
Oc1ccc(Nc2nc3ccc(Cl)cc3s2)cc1Cl [Compound 23, 2-Chloro-4-((6-chlorobenzo[d]thiazol-2-yl)amino)phenol] | 120 ± 13.5 | 213 to 214.5 °C
COc1ccc2nc(NC(=O)NCc3ccc(O)c(Cl)c3)sc2c1 [Compound 28, 1-(3-Chloro-4-hydroxybenzyl)-3-(6-methoxybenzo[d]thiazol-2-yl)urea] | 101 ± 4.6 | 249 to 251 °C
